Columns and labels:
SaCodY [1] = molecular target: T1, SaCodY (Staphylococcus aureus, UniProt Q2FHI3); test: X-ray crystal structure of complex; type: binding
T1 construct: gene codY; full-length; expressed in E. coli BL21(DE3)pLysS; N-terminal His6-tag cut with TEV protease, Gly-Ala remnant before start Met

EfCodY [2] = molecular target: T2, EfCodY (Enterococcus faecalis, UniProt Q834K5); test: Leu binding assay (method in supplement); settings: compared with Lys74Ala mutant; details only in supplement
T2 construct: gene codY; full-length; expressed in E. coli BL21(DE3)pLysS; N-terminal His6-tag cut with TEV protease, Gly-Ala remnant before start Met; two dimers on 30-bp DNA

EfCodY [3] = molecular target: T2, EfCodY; test: X-ray crystal structure of complex; type: binding; settings: co-crystal with 30-bp DNA; 4 mM Leu; GAF domain BCAA site of protomers A and B only
SaCodY [4] = molecular target: T1, SaCodY; test: bio-layer interferometry, activation of binding to hutP operator DNA; type: biochemical; settings: 10 mM Leu with 2 mM GTP; pH 8, 2 mM MgCl2, 25 °C; allosteric activator
EfCodY [5] = molecular target: T2, EfCodY; test: bio-layer interferometry, reduction of Leu-activated binding to hutP operator DNA; type: biochemical; settings: 2 mM GTP with 10 mM Leu; pH 8, 2 mM MgCl2, 25 °C; negative effect, binding to protein only presumed

T1 sequence (Q2FHI3 whole entry): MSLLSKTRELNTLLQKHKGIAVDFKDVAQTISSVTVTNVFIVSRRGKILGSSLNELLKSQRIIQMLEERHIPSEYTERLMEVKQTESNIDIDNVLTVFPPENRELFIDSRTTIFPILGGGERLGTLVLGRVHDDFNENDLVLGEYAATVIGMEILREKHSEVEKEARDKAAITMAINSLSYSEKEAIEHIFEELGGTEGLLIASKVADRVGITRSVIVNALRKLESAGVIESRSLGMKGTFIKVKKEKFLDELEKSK
T2 sequence (Q834K5 entry or part of it): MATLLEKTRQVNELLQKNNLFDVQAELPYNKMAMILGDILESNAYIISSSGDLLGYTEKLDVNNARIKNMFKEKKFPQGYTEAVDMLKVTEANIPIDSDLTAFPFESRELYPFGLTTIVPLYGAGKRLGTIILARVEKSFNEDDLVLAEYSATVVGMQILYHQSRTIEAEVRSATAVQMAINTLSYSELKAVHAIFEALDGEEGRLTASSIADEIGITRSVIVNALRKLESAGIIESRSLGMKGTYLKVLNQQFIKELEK

CC[C@H](C)[C@H](N)C(=O)O [Ile]
X-ray crystal structure of complex (SaCodY [1]; co-crystal with GTP and 30-bp DNA, 20 mM Ile, GAF domain BCAA site): The SaCodY-DNA complex was co-crystallized with Ile and GTP

CC(C)C[C@H](N)C(=O)O [Leu]
affinity (EfCodY [2]): the mutant binds Leu with comparable affinity to the wild type | X-ray crystal structure of complex (EfCodY [3]): EfCodY complex was co-crystallized in the presence of Leu, yet Leu bound only to protomers | bio-layer interferometry, activation of binding to hutP operator DNA (SaCodY [4]): SaCodY was activated by Ile (and to a lesser extent by Leu) and GTP

Nc1nc2c(ncn2[C@@H]2O[C@H](COP(=O)(O)OP(=O)(O)OP(=O)(O)O)[C@@H](O)[C@H]2O)c(=O)[nH]1 [GTP]
X-ray crystal structure of complex (SaCodY [1]; co-crystal with Ile and 30-bp DNA, 2 mM GTP, GAF domain near dimer interface, allosteric): The SaCodY-DNA complex was co-crystallized with Ile and GTP | bio-layer interferometry, reduction of Leu-activated binding to hutP operator DN (EfCodY [5]): Together with Leu, GTP reduced activation, presumably by interacting with the protein
